Measured values reported in ChEMBL document CHEMBL5154889, “Development of Novel IP6K Inhibitors for the Treatment of Obesity and Obesity-Induced Metabolic Dysfunctions” (J Med Chem, 2022).
Calls of active or inactive are those of the source. The rule behind the calls is not given here.

Key:
[1] = molecular target: T1, Inositol hexakisphosphate kinase 3 (Homo sapiens, UniProt Q96PC2); experiment: Inhibition of N-terminal 6His-sumo-tagged recombinant human IP6K3 expressed in Escherichia coli assessed as inorganic phosphate release using InsP6 as substrate in presence of ATP measured after 60 to 120 mins by malachite green based colorimetric - DIPP1 coupled enzyme assay
T1 sequence (Q96PC2 whole entry): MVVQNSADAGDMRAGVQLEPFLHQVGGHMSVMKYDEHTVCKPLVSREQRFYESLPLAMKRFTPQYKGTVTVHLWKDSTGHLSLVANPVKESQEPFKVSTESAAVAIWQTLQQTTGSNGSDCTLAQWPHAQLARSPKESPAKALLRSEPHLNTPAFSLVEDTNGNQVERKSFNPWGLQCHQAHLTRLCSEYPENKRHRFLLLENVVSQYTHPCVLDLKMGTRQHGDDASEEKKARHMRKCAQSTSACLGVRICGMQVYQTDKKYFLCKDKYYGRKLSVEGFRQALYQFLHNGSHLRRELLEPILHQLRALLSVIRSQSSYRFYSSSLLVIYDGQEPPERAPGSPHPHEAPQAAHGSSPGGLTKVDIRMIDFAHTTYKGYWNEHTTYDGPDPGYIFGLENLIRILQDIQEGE

[2] = molecular target: T2, Inositol hexakisphosphate kinase 1 (Homo sapiens, UniProt Q92551); experiment: Inhibition of N-terminal 6His-MBP-tagged recombinant human IP6K1 expressed in Escherichia coli assessed as inorganic phosphate release using InsP6 as substrate in presence of ATP measured after 60 to 120 mins by malachite green based colorimetric - DIPP1 coupled enzyme assay
Target sequence in this assay (Q92551 whole entry): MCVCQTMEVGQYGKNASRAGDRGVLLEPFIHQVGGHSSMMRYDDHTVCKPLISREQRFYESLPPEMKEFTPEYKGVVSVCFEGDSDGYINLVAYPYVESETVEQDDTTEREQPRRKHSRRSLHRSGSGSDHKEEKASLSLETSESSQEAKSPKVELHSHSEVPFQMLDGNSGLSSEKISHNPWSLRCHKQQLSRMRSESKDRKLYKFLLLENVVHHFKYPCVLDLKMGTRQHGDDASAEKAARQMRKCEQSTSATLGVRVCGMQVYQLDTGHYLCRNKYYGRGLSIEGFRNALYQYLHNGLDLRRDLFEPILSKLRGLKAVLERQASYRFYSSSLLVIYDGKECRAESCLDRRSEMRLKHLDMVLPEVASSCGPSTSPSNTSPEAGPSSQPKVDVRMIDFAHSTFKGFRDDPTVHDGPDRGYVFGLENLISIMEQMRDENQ

Homo sapiens = organism: Homo sapiens; experiment: Selectivity ratio of IC50 for N-terminal 6His-sumo-tagged recombinant human IP6K3 expressed in Escherichia coli assessed as inorganic phosphate release using InsP6 as substrate in presence of ATP measured to IC50 for N-terminal 6His-MBP-tagged recombinant human IP6K1 expressed in Escherichia coli assessed as inorganic phosphate release using InsP6 as substrate in presence of ATP
[3] = molecular target: T3, Inositol hexakisphosphate kinase 2 (Homo sapiens, UniProt Q9UHH9); experiment: Inhibition of N-terminal 6His-tagged/TEV cleavage site fused recombinant human IP6K2 expressed in Escherichia coli assessed as inorganic phosphate release using InsP6 as substrate in presence of ATP measured after 60 to 120 mins by malachite green based colorimetric - DIPP1 coupled enzyme assay
T3 sequence (Q9UHH9 whole entry): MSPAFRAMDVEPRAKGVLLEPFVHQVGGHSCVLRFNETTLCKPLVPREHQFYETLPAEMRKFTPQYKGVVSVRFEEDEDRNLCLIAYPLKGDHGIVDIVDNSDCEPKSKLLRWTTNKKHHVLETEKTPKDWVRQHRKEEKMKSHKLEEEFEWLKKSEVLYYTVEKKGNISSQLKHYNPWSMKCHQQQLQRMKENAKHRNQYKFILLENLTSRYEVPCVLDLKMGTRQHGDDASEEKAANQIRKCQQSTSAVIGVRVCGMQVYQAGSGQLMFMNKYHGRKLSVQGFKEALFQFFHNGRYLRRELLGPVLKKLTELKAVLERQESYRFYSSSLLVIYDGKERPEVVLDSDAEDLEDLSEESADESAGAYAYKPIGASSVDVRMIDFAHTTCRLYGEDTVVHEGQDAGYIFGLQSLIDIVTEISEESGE

Mus musculus [4] = experiment: Anti-diabetic activity in 16 hrs fasted C57BL6J mouse model of high fat diet-induced obesity assessed as reduction in pyruvate-induced gluconeogenesis at 2 mg/kg, ip administered for 4 weeks by pyruvate tolerance test; format: functional, organism-based
[5] = molecular target: Inositol-trisphosphate 3-kinase A (Homo sapiens) (UniProt P23677); experiment: Inhibition of N-terminal 6His-tagged/TEV cleavage site fused recombinant human IP3KA (173 to 461 residues) expressed in Escherichia coli using [3H]-Ins91,4,5)P3 as substrate measured after 60 mins by HPLC analysis
Chain of Inositol-trisphosphate 3-kinase A (Homo sapiens) (P23677 whole entry, the tested form may be a part): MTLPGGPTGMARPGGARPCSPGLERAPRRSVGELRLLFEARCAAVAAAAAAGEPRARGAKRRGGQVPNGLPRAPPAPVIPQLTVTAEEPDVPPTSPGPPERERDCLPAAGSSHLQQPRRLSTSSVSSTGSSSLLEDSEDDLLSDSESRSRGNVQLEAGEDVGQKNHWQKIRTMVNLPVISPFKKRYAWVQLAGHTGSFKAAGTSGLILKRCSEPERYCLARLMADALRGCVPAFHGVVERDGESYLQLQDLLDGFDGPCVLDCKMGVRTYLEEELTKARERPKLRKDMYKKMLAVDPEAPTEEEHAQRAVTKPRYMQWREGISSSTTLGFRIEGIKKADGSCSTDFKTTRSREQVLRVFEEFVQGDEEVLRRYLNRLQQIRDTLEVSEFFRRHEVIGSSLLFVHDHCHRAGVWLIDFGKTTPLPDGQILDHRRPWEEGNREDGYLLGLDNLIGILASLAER

CYP2C9 = CYP2C9 (Homo sapiens, UniProt P11712); experiment: Inhibition of CYP2C9 in human liver microsomes at 10 uM in presence of NADPH by LC-MS/MS analysis; format: ADME, Microsome
Chain of CYP2C9 (P11712 whole entry): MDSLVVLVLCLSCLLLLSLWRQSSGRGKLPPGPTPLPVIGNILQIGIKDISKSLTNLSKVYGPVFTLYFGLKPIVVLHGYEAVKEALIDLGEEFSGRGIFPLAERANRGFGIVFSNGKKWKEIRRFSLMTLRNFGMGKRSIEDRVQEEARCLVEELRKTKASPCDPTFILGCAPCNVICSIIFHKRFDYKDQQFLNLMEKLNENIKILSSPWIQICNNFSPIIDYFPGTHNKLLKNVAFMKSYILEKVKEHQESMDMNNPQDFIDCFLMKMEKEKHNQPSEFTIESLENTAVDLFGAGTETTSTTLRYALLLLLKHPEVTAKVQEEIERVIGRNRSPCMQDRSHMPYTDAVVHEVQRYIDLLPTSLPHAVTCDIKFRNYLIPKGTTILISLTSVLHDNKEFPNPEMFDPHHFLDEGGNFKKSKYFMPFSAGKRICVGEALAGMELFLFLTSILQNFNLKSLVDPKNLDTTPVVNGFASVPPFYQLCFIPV

[6] = AUClast in diet-induced obesity CD1 mouse model at 5 mg/kg, iv measured up to 24 hrs post-dosing by LC-MS/MS analysis; format: ADME, organism-based; set-up: dose 5 mg/kg, time < 24 hrs, route iv; settings: in vivo
[7] = AUClast in diet-induced obesity CD1 mouse at 5 mg/kg, ip measured up to 24 hrs post-dosing by LC-MS/MS analysis; format: ADME, organism-based; set-up: dose 5 mg/kg, time < 24 hrs, route ip; settings: in vivo
[8] = Clearance in diet-induced obesity CD1 mouse at 5 mg/kg, iv measured up to 24 hrs post-dosing by LC-MS/MS analysis; format: ADME, organism-based; settings: in vivo
Mus musculus [9] = experiment: Anti-obesity activity in high fat diet-induced obesity C57BL6J mouse model assessed as reduction in body weight at 5 mg/kg, ip administered for 4 weeks; format: functional, organism-based
Mus musculus [10] = experiment: Anti-obesity activity in high fat diet-induced obesity C57BL6J mouse model assessed as reduction in fat mass at 5 mg/kg, ip administered for 4 weeks; format: functional, organism-based
Mus musculus [11] = experiment: Anti-obesity activity in high fat diet-induced obesity C57BL6J mouse model assessed as reduction in lean mass at 5 mg/kg, ip administered for 4 weeks; format: functional, organism-based
Mus musculus [12] = experiment: Anti-obesity activity in high fat diet-induced obesity C57BL6J mouse model assessed as reduction in epididymal-adipose tissue weight at 5 mg/kg, ip administered for 4 weeks; format: functional, organism-based
Mus musculus [13] = experiment: Anti-obesity activity in high fat diet-induced obesity C57BL6J mouse model assessed as reduction in inguinal-adipose tissue weight at 5 mg/kg, ip administered for 4 weeks; format: functional, organism-based
Mus musculus [14] = experiment: Anti-diabetic activity in 5 hrs fasted C57BL6J mouse model of high fat diet-induced obesity assessed as improved blood glucose disposal at […], ip administered for 1 weeks by insulin tolerance test; format: functional, organism-based
Mus musculus [15] = experiment: Anti-diabetic activity in 16 hrs fasted C57BL6J mouse model of high fat diet-induced obesity assessed as improved blood glucose disposal at 2 mg/kg, ip administered for 3 weeks by insulin tolerance test; format: functional, organism-based
Mus musculus [16] = experiment: Reduction in liver weight in C57BL6J mouse model of high fat diet-induced obesity at 2 mg/kg, ip administered for 4 weeks by H and E staining assay; format: functional, organism-based
Mus musculus [17] = experiment: Reduction in hepatic steatosis in C57BL6J mouse model of high fat diet-induced obesity at 2 mg/kg, ip administered for 4 weeks by H and E staining assay; format: functional, organism-based
[18] = molecular target: Death-associated protein kinase 1 (Homo sapiens) (UniProt P53355); experiment: Inhibition of DAPK1 (unknown origin) at 1 uM relative to control
Chain of Death-associated protein kinase 1 (Homo sapiens) (P53355 whole entry, looked up): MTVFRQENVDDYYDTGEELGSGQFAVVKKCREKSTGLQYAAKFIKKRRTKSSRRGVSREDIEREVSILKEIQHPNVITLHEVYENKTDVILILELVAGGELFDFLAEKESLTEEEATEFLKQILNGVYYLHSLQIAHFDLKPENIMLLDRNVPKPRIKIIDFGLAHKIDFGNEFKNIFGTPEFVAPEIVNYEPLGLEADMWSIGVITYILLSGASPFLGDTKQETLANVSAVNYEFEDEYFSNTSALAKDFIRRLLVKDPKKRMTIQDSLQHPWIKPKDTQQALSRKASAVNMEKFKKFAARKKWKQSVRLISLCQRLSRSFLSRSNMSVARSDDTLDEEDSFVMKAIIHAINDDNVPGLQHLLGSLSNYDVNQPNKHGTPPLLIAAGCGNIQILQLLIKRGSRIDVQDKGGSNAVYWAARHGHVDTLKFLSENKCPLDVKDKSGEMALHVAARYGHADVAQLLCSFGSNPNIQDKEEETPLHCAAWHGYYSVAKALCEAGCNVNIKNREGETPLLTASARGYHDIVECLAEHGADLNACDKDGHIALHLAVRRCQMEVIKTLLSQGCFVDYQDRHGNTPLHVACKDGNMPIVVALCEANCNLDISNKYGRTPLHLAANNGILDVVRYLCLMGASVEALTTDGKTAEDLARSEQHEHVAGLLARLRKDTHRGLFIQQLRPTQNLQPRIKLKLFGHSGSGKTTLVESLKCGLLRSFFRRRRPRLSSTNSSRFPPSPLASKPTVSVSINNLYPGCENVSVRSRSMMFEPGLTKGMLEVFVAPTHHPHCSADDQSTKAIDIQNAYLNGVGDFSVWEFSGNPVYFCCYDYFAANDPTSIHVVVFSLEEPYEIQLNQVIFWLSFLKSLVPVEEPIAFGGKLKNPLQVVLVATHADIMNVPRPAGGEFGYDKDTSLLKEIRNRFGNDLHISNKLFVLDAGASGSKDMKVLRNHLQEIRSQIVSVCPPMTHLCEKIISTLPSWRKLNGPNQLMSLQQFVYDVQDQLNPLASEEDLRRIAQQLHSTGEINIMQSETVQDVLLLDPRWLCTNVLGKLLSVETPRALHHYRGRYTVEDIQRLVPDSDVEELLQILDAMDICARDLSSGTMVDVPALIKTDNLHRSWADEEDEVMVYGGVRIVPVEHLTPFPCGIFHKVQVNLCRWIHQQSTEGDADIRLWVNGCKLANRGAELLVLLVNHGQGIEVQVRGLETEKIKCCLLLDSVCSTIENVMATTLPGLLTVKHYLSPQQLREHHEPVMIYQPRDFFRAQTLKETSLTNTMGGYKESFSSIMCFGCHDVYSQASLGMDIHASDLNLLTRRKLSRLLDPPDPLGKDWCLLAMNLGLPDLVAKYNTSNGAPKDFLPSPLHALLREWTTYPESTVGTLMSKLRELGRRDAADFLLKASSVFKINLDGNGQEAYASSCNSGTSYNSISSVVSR

[19] = molecular target: T2, Inositol hexakisphosphate kinase 1; experiment: Inhibition of recombinant full length human IP6K1 in HCT-116 cells assessed as reduction in InsP7 level at 10 to 30 uM measured after 30 mins by toluidine blue staining based analysis; format: cell-based; settings: dose 10-30 µM
Target sequence in this assay (Q92551 whole entry, looked up): as the sequence (Q92551 whole entry) above

[20] = molecular target: T3, Inositol hexakisphosphate kinase 2; experiment: Inhibition of recombinant full length human IP6K2 assessed as inorganic phosphate release measured after 30 mins by ADP-Glo Max assay
[21] = molecular target: T2, Inositol hexakisphosphate kinase 1; experiment: Inhibition of recombinant full length human IP6K1 assessed as inorganic phosphate release measured after 30 mins by ADP-Glo Max assay
Target sequence in this assay (Q92551 whole entry): as above

[22] = molecular target: T1, Inositol hexakisphosphate kinase 3; experiment: Inhibition of recombinant full length human IP6K3 assessed as inorganic phosphate release measured after 2 hrs by ADP-Glo Max assay

O=C(O)c1ccc2noc(-c3cccc(Oc4ccccn4)c3)c2c1
IC50 [1]: 10900 nM

O=C(O)c1ccc2noc(-c3ccc(Oc4ncc(Cl)cc4Cl)cc3)c2c1
IC50 [2]: 430 nM
IC50 [1]: 2250 nM
Ratio IC50 (Homo sapiens): 5.2

O=C(O)c1ccc2noc(-c3ccc(Cc4ccccc4)cc3)c2c1
IC50 [1]: 1290 nM

O=C(O)c1ccc2noc(-c3ccc(NC(=O)c4ccccc4)cc3)c2c1
IC50 [1]: 200 nM

O=C(O)c1ccc2noc(-c3cccc(Oc4ncc(Cl)cc4Cl)c3)c2c1
IC50 [1]: 3090 nM

O=C(O)c1ccc2noc(-c3cccc(-c4ccccc4)c3)c2c1
IC50 [3]: 130 nM
IC50 [1]: 840 nM

O=C(O)/C=C/c1ccc2noc(-c3ccc(OC(F)(F)F)cc3)c2c1
IC50 [1]: 8370 nM

O=C(O)c1ccc2noc(-c3cccc(Oc4ccccc4)c3)c2c1
IC50 [1]: 850 nM

Cc1cccc(-c2onc3ccc(/C=C/C(=O)O)cc23)c1
IC50 [1]: 3590 nM

Cc1cccc(-c2onc3ccc(C(=O)O)cc23)c1
IC50 [1]: 1410 nM

O=C(O)c1ccc2noc(-c3cccc(NC(=O)C4CC4)c3)c2c1
IC50 [1]: 2810 nM

O=C(O)c1ccc2noc(-c3cccc(C(F)(F)F)c3)c2c1
IC50 [1]: 4620 nM

O=C(O)c1ccc2noc(-c3ccc(-c4ccccc4)cc3)c2c1
Activity (Mus musculus [4]): Active
inhibition [5]: Active
inhibition at 10 µM (CYP2C9): 36%
AUClast [6]: 6054 ng·h/mL
AUClast [7]: 2527 ng·h/mL
clearance [8]: 13.7 mL/min/kg
Activity (Mus musculus [9]): Active
Activity (Mus musculus [10]): Active
Activity (Mus musculus [11]): Active
Activity (Mus musculus [12]): Active
Activity (Mus musculus [13]): Active
Activity (Mus musculus [14]): Active
Activity (Mus musculus [15]): Active
Activity (Mus musculus [16]): Active
Activity (Mus musculus [17]): Active
inhibition [18]: 31%

O=C(O)c1ccc2noc(-c3ccccc3)c2c1
IC50 [1]: 2690 nM

O=C(O)/C=C/c1ccc2noc(-c3ccc(Oc4ccccc4)cc3)c2c1
IC50 [1]: 760 nM

O=C(O)c1ccc2noc(-c3ccc(N4CCCCC4)cc3)c2c1
IC50 [1]: 1790 nM

O=C(O)c1ccc2noc(-c3ccc(Oc4ccccc4)cc3)c2c1
IC50 [1]: 550 nM

O=[N+]([O-])c1ccc(CNc2nc(NCc3cccc(C(F)(F)F)c3)nc3[nH]cnc23)cc1
IC50 [2]: 1000 nM
IC50 [3]: 2000 nM
IC50 [1]: 14500 nM

CN(C)C(=O)/C=C/c1ccc2noc(-c3ccccc3)c2c1
IC50 [1]: > 100000 nM
Ratio IC50 (Homo sapiens): > 3.4

Cc1cc(C)cc(-c2onc3ccc(C(=O)O)cc23)c1
IC50 [1]: 2440 nM

O=C(O)c1ccc2noc(-c3ccc(NC(=O)C4CCCC4)cc3)c2c1
IC50 [1]: 240 nM

O=C(O)c1ccc2noc(-c3ccc(NC(=O)c4ccncn4)cc3)c2c1
IC50 [1]: 430 nM

O=C(O)/C=C/c1ccc2c(-c3ccccc3)onc2c1
Ratio IC50 (Homo sapiens): 3.6

O=C(O)c1ccc2c(c1)C1(CCN(C(=O)c3ccc(Cl)cc3)CC1)C(=O)N2
inhibition [19]: Active
IC50 [20]: 25 nM
IC50 [21]: 27 nM
IC50 [22]: 8 nM

O=C(O)/C=C/c1ccc2noc(-c3ccc(-c4ccccc4)cc3)c2c1
IC50 [1]: 200 nM

CC(C)NC(=O)c1ccc(-c2onc3ccc(C(=O)O)cc23)cc1
IC50 [3]: 350 nM
IC50 [1]: 340 nM

CC(C)C(=O)Nc1ccc(-c2onc3ccc(C(=O)O)cc23)cc1
IC50 [3]: 820 nM
IC50 [1]: 210 nM

O=C(O)c1ccc2noc(-c3ccc(N4CCCC4=O)cc3)c2c1
IC50 [1]: 2170 nM

O=C(O)c1ccc2noc(-c3ccc(-c4ccncc4)cc3)c2c1
IC50 [1]: 670 nM
